Measurements from US20240189242A1, “LIPID NANOPARTICLE COMPOSITIONS AND METHODS OF FORMULATING THE SAME” (MODERNATX, INC., priority 2021, published 2024).
Values belong to the compound of their own block, whether it stands above or below them.

What was measured:
Assay type in all cases: physicochemical
[1] = system: RNA; test: percentage of IG in binary mixtures of RNA and ionizable lipid, ion pair reversed phase HPLC; conditions: for levels of IG: binary mixtures of RNA and Compound III with 1 mM agent, versus control; for initial rate of IG formation: Compound III binaries with 5 mM agent (FIG. 15)
Excerpt: To detect and quantify the amount of IG present in LNP formulations comprising polynucleotides and lipid, a protocol was developed (FIG. 2) that included (1) extraction of the polynucleotide molecules (e.g. precipitation, liquid:liquid extraction); (2) assessment of integrity (e.g. purity, length) of the isolated polynucleotides by known methods (e.g. fragment analyzer, gel electrophoresis); and (3) analysis of the isolated polynucleotides by HPLC.
(§1) RNA was extracted from the LNP formulation by precipitation in ammonium acetate in isopropanol; resuspended in water to target a final RNA concentration of 0.1 mg/mL; and assessed by fragment analyzer capillary electrophoresis and ion pair reversed phase HPLC (performed on a Thermo DNApac RP 100×2.1 mm column at 65° C., with mobile phases containing 50 mM dibutylammonium acetate and 100 mM triethylammonium acetate in water and acetonitrile). Elution with an acetonitrile gradient provided an RNA separation primarily driven by mRNA length and sensitive to any added hydrophobic elements. Two prominent peaks were apparent on the HPLC chromatogram (FIG. 2), including a “main peak” comprising non-adduct mRNA and an “IG” peak comprising mRNA with one or more covalent modifications. The mass fraction of RNA containing at least one lipid adduct was determined by integrating the area under the curve (AUC) of all RNA peaks (including products shorter than the full-length product, the full-length product, and the hydrophobic modified RNA) and taking the late-eluting region as an area percent of the total peak area.
Compound III was dissolved in ethanol at a concentration of 4 mg/mL, and the RNA diluted in sodium acetate buffer pH 5.5; the RNA and lipids were then mixed in 25% ethanol. Samples were held at 25° C., and the RNA was periodically extracted by precipitation in isopropanol and analyzed by ion pair reversed phase (FIGS. 5 and 6A, data marked by *).

[2] = system: RNA; test: percentage of IG in LNPs buffered with PBS or Tris, HPLC
Experimental: as §1
To determine if different buffering conditions confer reductions in the percentage of IG formed in binary mixtures of RNA and Compound III, binary mixtures were prepared with RNA and Compound III and buffered with PBS or Tris at and the percentage of IG in the resulting binary mixtures was quantified according to the protocol detailed in Example 1. In brief, a single batch of LNPs was split mid-process into four aliquots, two of which were prepared in a final buffer of 1×PBS and the other two of which were prepared in a final buffer of 100 mM Tris-HCl pH 7.4. […]
To determine if different buffering conditions confer reductions in the percentage of IG formed in binary mixtures of RNA and Compound VI, binary mixtures were prepared with RNA and Compound VI and buffered PBS or Tris at and the percentage of IG in the resulting binary mixtures was quantified according to the protocol detailed in Example 1.

[3] = system: RNA; test: percentage of IG in binary mixtures of RNA and ionizable lipid, ion pair reversed phase HPLC

levels of IG ([1]; 25° C., after 18 hours): reduced levels of IG
Compound: O=C(O)CCCC[C@@H]1CCSS1 (racemic) [lipoic acid]

IG formation over time ([1]; chromatographically purified Compound III (up to 99% purity, no detectable Compound III-N-oxide) and RNA): still formed IG over time | IG ([1]; control binary mixtures of RNA and Compound III (Example 6), 25° C., after 3 days): ~35% | IG detected ([1]; control binary mixtures of RNA and Compound III (Example 11), 25° C., after 18 hours): ~20% | percentage of IG over time ([2]; Compound III LNPs buffered with Tris and stored either at 5° C. or 20° C.): around 10% | percentage of IG over time ([3]; binary mixtures with RNA): increased over time | IG ([3]; control binary mixtures of RNA and Compound III (Example 5), after 0 days): ~10% | IG ([3]; control binary mixtures of RNA and Compound III (Example 5), after 5 days): ~40% | IG ([3]; control binary mixtures of RNA and Compound III (Example 5), after 25 days): ~45% | IG ([3]; control binary mixtures of RNA and Compound III (Example 6), 25° C., after 1 day): ~15% | IG ([3]; control binary mixtures of RNA and Compound III (Example 6), 25° C., after 7 days): ~40% | IG detected ([3]; control binary mixtures of RNA and Compound III (Example 7), 25° C., after 18 hours): ~35% | IG detected ([3]; control binary mixtures of RNA and Compound III, after 13 days of incubation at 25° C.): ~45%
Compound: CCCCCCCCCCCOC(=O)CCCCCN(CCO)CCCCCCCC(=O)OC(CCCCCCCC)CCCCCCCC [Compound III]
percentage of IG, Tris versus PBS ([2]; Compound III LNPs, 100 mM Tris-HCl pH 7.4 (5° C., −20° C.) versus 1×PBS (5° C.)): lower in binary mixtures buffered with Tris compared to binary mixtures buffered with PBS | percentage IG detected ([3]; mRNA and Compound III treated with higher concentrations of sodium metabisulfite (KDS), removed by dialysis with 20 mM Tris, t=0 h and 24 hours): reduced when treated with higher concentrations

IG ([3]; control binary mixtures of RNA and Compound VI, after 1 day): ~55% | IG ([3]; control binary mixtures of RNA and Compound VI, after 2 days): ~70% | IG ([3]; control binary mixtures of RNA and Compound VI, after 13 days): ~80%
Compound: CCCCCCCCCN(CCCCCCCCC)CCN(CCCCCCCCC)CC(=O)N1CCN(C(=O)CN(CCCCCCCCC)CCCCCCCCC)CC1 [Compound VI]
percentage of IG, Tris versus PBS ([2]; Compound VI LNPs stored at 5° C., 20 mM Tris, 8% sucrose, pH 8 versus 1×PBS, pH 7.2): lower in binary mixtures buffered with Tris compared to binary mixtures buffered with PBS

Compound: Clc1ccc(C(c2ccc(Cl)cc2)C(Cl)(Cl)Cl)cc1 [DDT, dichlorodiphenyltrichloroethane]
levels of IG ([1]; 25° C., after 18 hours): reduced levels of IG

levels of IG ([1]; 25° C., after 18 hours): reduced levels of IG
Compound: O[C@H](CS)[C@@H](O)CS [DTE, dithioerythritol]

levels of IG ([1]; 25° C., after 18 hours): reduced levels of IG
Compound: O[C@H](CS)[C@H](O)CS [DTT, dithiothreitol]

levels of IG ([1]; 25° C., after 18 hours): reduced levels of IG
Compound: CC(=O)N[C@@H](CS)C(=O)O [N-acetyl cysteine]
initial rate of IG formation [1]: effective at eliminating the fast initial rate of IG formation

Compound: O=C(O)CCP(CCC(=O)O)CCC(=O)O [TCEP, tris(2-carboxyethyl)phosphine]
levels of IG ([1]; 25° C., after 18 hours): reduced levels of IG

levels of IG ([1]; 25° C., after 18 hours): reduced levels of IG
Compound: NCCSSCCN [cystamine]

levels of IG ([1]; 25° C., after 18 hours): reduced levels of IG
Compound: N[C@@H](CCC(=O)N[C@@H](CS)C(=O)NCC(=O)O)C(=O)O [glutathione]

levels of IG ([1]; 25° C., after 18 hours): reduced levels of IG
Compound: N[C@@H](CCS)C(=O)O [homo cysteine, homocysteine]

Compound: O=S([O-])S(=O)(=O)[O-].[K+].[K+] [potassium metabisulfite]
initial rate of IG formation [1]: effective at eliminating the fast initial rate of IG formation | levels of IG ([1]; 25° C., after 18 hours): reduced levels of IG

levels of IG ([1]; 25° C., after 18 hours): reduced levels of IG
Compound: [BH4-].[Na+] [sodium borohydrate]

Compound: O=S([O-])S(=O)(=O)[O-].[Na+].[Na+] [sodium metabisulfite]
initial rate of IG formation [1]: effective at eliminating the fast initial rate of IG formation

Compound: O=C([O-])CS.[Na+] [sodium thioglycolate]
levels of IG ([1]; 25° C., after 18 hours): reduced levels of IG

Compound: O=S([O-])([O-])=S.[Na+].[Na+] [sodium thiosulfate]
levels of IG ([1]; 25° C., after 18 hours): reduced levels of IG
